Source: ChEMBL document CHEMBL1155094, “Isosteric exchange of the acylsulfonamide moiety in Abbott's Bcl-XL protein interaction antagonist” (Bioorg Med Chem Lett, 2008)

Biological target: T1, Bcl-2-like protein 2 (Homo sapiens, UniProt Q92843)
T1 sequence (Q92843 whole entry): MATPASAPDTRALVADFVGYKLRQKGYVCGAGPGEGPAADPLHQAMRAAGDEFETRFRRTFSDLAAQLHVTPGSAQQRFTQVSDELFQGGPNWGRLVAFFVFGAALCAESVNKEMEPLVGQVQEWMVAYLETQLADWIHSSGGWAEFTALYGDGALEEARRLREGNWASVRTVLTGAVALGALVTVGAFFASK
Assay: Inhibition of 5-carboxyfluorescein-labeled Flu-Bak-BH3 peptide binding to Bcl-w by fluorescence polarization assay

With `CN(CC(=O)Nc1ccc(NC23CC4CC(CC(C4)C2)C3)c([N+](=O)[O-])c1)C(=O)c1ccc(-c2ccccc2)cc1` as the compound, how does the Ki read?
The Ki was 9.43 µM.

Which Ki does the source give for `CN(CC(=O)Nc1ccc(N2CCSCC2)c([N+](=O)[O-])c1)C(=O)c1ccc(-c2ccccc2)cc1` here?
The Ki was 13 µM.

For `CN(CC(=O)Nc1ccc(N2CCCCC2)c([N+](=O)[O-])c1)C(=O)c1ccc(-c2ccccc2)cc1`, which Ki is on record?
The Ki was 10.8 µM.
